Results on 27 compounds are retold here after patent publication US6432969B1, “N-(substituted glycyl)-2 cyanopyrrolidines, pharmaceutical compositions containing them and their use in inhibiting dipeptidyl peptidase-IV” (Novartis AG, priority 2000, dated 2002).

The target in data set [1] is T1, DPP-IV activity from human colonic carcinoma cell (Caco-2) extracts (Homo sapiens, UniProt P27487).
T1 construct: Cell extract is prepared from cells solubilized in 10 mM Tris HCl; host or cells: Caco-2, differentiated to induce DPP-IV expression
Nature of the data set: Caco-2 DPP-IV Assay. It is filed as biochemical. The following applies: Caco-2 cell extract, substrate H-Ala-Pro-pNA, 8-point dose-response. The procedure:
The human colonic carcinoma cell line Caco-2 was obtained from the American Type Culture Collection (ATCC HTB 37). Differentiation of the cells to induce DPP-IV expression was accomplished as described by Reisher, et al. in an article entitled “Increased expression of intestinal cell line Caco-2” in Proc. Natl. Acad. Sci., Vol. 90, pgs. […] Cell extract is prepared from cells solubilized in 10 mM Tris HCl, 0.15 M NaCl, 0.04 t.i.u.aprotinin, 0.5% nonidet-P40, pH 8.0, which is centrifuged at 35,000 g for 30 min. at 4° C. to remove cell debris. The assay is conducted by adding 20 μg solubilized Caco-2 protein, diluted to a final volume of 125 μl in assay buffer (25 mM Tris HCl pH 7.4, 140 mM NaCl, 10 mM KCl, 1% bovine serum albumin) to microtiter plate wells. After a 60 min. incubation at room temperature, the reaction is initiated by adding 25 μl of 1 mM substrate (H-Alanine-Proline-pNA; pNA is p-nitroaniline). […] A standard curve of free p-nitroaniline is generated using 0-500 μM solutions of free pNA in assay buffer. The curve generated is linear and is used for interpolation of substrate consumption (catalytic activity in nmoles substrate cleaved/min).
The potency of the test compounds as DPP-IV inhibitors, expressed as IC50, is calculated from 8-point, dose-response curves using a 4-parameter logistic function.

For data set [2], the target named is T2, DPP-IV activity in human plasma (Homo sapiens, UniProt P27487).
T2 construct: from tissue; host or cells: human plasma
Briefly: Human plasma DPP-IV assay. The following applies: substrate H-Gly-Pro-AMC. Format: biochemical. The procedure:
(§1) Briefly, 5 μl of plasma are added to 96-well flat-bottom micortiter plates (Falcon), followed by the addition of 5 μl of 80 mM MgCl2 in incubation buffer (25 mMHEPES, 140 mM NaCl, 1% RIA-grade BSA, pH 7.8). After a 60 min. incubation at room temperature, the reaction is initiated by the addition of 10 μl of incubation buffer containing 0.1 mM substrate (H-Glycine-Proline-AMC; AMC is 7-amino 4-methylcoumarin). The plates are covered with aluminum foil (or kept in the dark) and incubated at room temperature for 20 min. […] A fluorescence-concentration curve of free AMC is generated using 0-50 μM solutions of AMC in assay buffer. The curve generated is linear and is used for interpolation of substrate consumption (catalytic activity in nmoles substrate cleaved/min). As with the previous assay, the potency of the test compounds as DPP-IV inhibitors, expressed as IC50, is calculated from 8-point, dose-response curves using a 4 parameter logistic function.

Data set [3] addresses T3, DPP-IV activity in rat plasma (Rattus norvegicus, UniProt P14740).
T3 construct: from tissue; host or cells: rat plasma
Nature of the data set: Rat plasma DPP-IV assay. Format: biochemical. Particulars: substrate H-Gly-Pro-AMC. The procedure:
as §1

T1 sequence (P27487 whole entry): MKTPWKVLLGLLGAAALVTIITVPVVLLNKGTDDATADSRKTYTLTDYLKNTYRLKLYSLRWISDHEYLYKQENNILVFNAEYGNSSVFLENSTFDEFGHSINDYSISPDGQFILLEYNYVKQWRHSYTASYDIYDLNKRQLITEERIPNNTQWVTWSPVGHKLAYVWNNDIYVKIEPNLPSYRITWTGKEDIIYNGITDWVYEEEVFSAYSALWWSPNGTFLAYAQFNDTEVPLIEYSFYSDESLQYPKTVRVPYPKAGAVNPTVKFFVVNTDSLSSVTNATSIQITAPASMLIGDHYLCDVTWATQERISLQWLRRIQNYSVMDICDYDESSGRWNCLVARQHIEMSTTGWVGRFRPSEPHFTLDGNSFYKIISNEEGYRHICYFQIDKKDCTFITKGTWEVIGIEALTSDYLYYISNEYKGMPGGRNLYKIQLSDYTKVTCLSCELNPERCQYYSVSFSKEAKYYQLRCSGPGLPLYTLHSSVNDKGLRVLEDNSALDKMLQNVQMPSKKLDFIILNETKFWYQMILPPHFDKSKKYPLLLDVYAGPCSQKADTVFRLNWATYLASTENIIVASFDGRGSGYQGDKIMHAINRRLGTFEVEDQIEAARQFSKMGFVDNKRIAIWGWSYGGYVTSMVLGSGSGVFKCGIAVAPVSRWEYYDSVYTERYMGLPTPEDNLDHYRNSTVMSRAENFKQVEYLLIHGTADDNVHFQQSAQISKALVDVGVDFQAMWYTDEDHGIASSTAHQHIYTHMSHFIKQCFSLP
T2 sequence (P27487 39-766 limits assumed): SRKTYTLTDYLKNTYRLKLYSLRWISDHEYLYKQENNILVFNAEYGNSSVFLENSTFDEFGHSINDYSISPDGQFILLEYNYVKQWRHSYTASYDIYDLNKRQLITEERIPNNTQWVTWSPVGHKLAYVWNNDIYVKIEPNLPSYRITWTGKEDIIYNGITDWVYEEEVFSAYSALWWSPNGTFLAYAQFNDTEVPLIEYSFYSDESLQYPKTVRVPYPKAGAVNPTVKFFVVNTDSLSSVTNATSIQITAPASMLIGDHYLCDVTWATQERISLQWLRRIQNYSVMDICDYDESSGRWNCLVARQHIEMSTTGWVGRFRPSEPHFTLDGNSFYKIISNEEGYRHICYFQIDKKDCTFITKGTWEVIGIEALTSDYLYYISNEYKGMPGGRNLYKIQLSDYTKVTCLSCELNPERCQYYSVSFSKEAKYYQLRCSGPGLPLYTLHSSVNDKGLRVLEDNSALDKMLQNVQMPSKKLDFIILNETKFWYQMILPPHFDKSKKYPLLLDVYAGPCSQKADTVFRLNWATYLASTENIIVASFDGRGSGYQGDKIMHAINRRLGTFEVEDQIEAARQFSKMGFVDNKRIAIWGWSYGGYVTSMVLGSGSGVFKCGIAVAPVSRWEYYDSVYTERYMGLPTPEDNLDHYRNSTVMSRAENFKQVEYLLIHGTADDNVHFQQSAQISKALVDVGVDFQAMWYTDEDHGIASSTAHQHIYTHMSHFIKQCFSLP
T3 sequence (P14740 38-767 limits assumed): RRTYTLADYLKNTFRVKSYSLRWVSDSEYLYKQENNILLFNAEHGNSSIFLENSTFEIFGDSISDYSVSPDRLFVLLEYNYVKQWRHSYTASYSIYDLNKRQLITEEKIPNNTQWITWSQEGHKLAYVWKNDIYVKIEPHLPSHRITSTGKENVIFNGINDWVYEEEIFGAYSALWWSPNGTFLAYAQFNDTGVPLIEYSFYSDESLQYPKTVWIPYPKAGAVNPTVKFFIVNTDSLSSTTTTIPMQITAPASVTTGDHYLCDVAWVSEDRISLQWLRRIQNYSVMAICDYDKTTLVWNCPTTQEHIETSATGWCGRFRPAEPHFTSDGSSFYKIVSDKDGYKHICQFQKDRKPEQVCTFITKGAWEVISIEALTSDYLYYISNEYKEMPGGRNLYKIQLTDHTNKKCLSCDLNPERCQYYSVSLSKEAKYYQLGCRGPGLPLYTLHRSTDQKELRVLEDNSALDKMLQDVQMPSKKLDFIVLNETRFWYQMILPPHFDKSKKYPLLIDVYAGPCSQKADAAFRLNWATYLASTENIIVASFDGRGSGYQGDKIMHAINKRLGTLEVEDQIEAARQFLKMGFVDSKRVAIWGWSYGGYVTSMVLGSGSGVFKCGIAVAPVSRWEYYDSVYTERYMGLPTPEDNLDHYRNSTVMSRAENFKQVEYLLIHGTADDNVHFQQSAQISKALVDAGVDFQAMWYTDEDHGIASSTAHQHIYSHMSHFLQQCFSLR

As to `N#C[C@@H]1CCCN1C(=O)CN[C@H]1CC[C@H](NS(=O)(=O)c2cccs2)CC1` [Ex. 2AA], the IC50 (as a rule, the concentration that inhibits the measured activity by half) is 56 nM in data set [1], 33 nM in data set [2] and 16 nM in data set [3].

Consider `CC(C)(CNc1ccc(C(F)(F)F)cn1)NCC(=O)N1CCC[C@H]1C#N` [Ex. 2B, 1-[[[2-[(5-trifluoromethyl-2-pyridinyl)amino]-1,1-dimethylethyl]amino]acetyl]-2-cyano-(S)-pyrrolidine], for which the figures for the IC50 in data set [1], in data set [2] and in data set [3] were 5 nM, 59 nM and 11 nM, respectively.

Take `CC(C)(Cc1ccc(F)cc1)NCC(=O)N1CCC[C@H]1C#N` [Ex. 2BB]: the IC50 stood at 19 nM in data set [1], 38 nM in data set [2] and 13 nM in data set [3].

Take `Cc1ccc(C(=O)NCC(C)(C)NCC(=O)N2CCC[C@H]2C#N)cc1` [Ex. 2C, 1-[[[2-[(4-methylbenzoyl)amino]-1,1-dimethylethyl]amino]acetyl]-2-cyano-(S)pyrrolidine]: the melting point (commonly the temperature, or range, at which the solid turns liquid) lay in the range of 40 to 42 °C. The same compound had an IC50 in data set [1] of 99 nM. In data set [2], this compound had an IC50 of 50 nM. Half-maximal inhibition in data set [3] (IC50) required 25 nM.

For the compound `CC(C)(CNc1ncccc1Cl)NCC(=O)N1CCC[C@H]1C#N` [Ex. 2D, 1-[[[2-[(3-chloro-2-pyridinyl)amino]-1,1-dimethylethyl]amino]acetyl]-2-cyano-(S)-pyrrolidine], the results for the IC50 in data set [1], in data set [2] and in data set [3] were 44 nM, 93 nM and 71 nM, respectively.

`CCCCCC12CCC(NCC(=O)N3CCC[C@H]3C#N)(CC1)CC2` [Ex. 2DD, 1-[[(4-pentylbicyclo[2.2.2]oct-1-yl)amino]acetyl]-2-cyano-(S)-pyrrolidine]: the IC50 in data set [1] is 156 nM; in data set [2], 66 nM; in data set [3], 38 nM.

As to `CC(C)(CNc1ncc(Cl)cc1Cl)NCC(=O)N1CCC[C@H]1C#N` [Ex. 2F, 1-[[[2-[(3,5-dichloro-2-pyridinyl)amino]-1,1-dimethylethyl]amino]acetyl]-2-cyano-(S)-pyrrolidine], the IC50 was determined as 45 nM in data set [1], 46 nM in data set [2] and 37 nM in data set [3].

As for `CC(C)(CNc1ncccc1C(F)(F)F)NCC(=O)N1CCC[C@H]1C#N` [Ex. 2G, 1-[[[2-[(3-trifluoromethyl-2-pyridinyl)amino]-1,1-dimethylethyl]amino]acetyl]-2-cyano-(S)-pyrrolidine], in data set [3], half-maximal inhibition (IC50) required 111 nM.

In the case of `N#C[C@@H]1CCCN1C(=O)CN[C@H]1CC[C@H](Oc2cccc(C(F)(F)F)c2)CC1` [Ex. 2GG, 1-[[[4-[(3-trifluoromethyl)phenoxy]cyclohexyl]amino]acetyl]-2-cyano-(S)-pyrrolidine], the IC50 in data set [1] came out at 22 nM; in data set [2] it was 20 nM; in data set [3], 10 nM.

Consider `N#C[C@@H]1CCCN1C(=O)CN[C@H]1CC[C@H](Oc2cccc(Cl)c2)CC1` [Ex. 2HH], for which the results for the IC50 in data set [1], in data set [2] and in data set [3] were 18 nM, 18 nM and 10 nM, respectively.

Regarding `CC(C)(CNC(=O)c1ccc(Cl)cc1)NCC(=O)N1CCC[C@H]1C#N` [Ex. 2I, 1-[[[2-[(4-chlorobenzoyl)amino]-1,1-dimethylethyl]amino]acetyl]-2-cyano-(S)-pyrrolidine], the IC50 in data set [1] came out at 80 nM; in data set [2], 73 nM; in data set [3] it was 31 nM.

In the case of `N#C[C@@H]1CCCN1C(=O)CNC1CCN(C(=O)Nc2ccc(Cl)cc2)CC1` [Ex. 2II, 1-[[[1-[[(4-chlorophenyl)amino]carbonyl]-4-piperidinyl]amino]acetyl]-2-cyano-(S)-pyrrolidine], the IC50 in data set [1] is 44 nM; in data set [2], 37 nM; in data set [3], 12 nM.

In the case of `CC(C)N(C(=O)NCC(C)(C)NCC(=O)N1CCC[C@H]1C#N)C(C)C` [Ex. 2J, 1-[[[2-[[(diisopropylamino)carbonyl]amino]-1,1-dimethylethyl]amino]acetyl]-2-cyano-(S)-pyrrolidine], the results for the IC50 in data set [1], in data set [2] and in data set [3] were 41 nM, 421 nM and 49 nM, respectively.

With `CC(C)N(C(=O)N1CCC(NCC(=O)N2CCC[C@H]2C#N)CC1)C(C)C` [Ex. 2JJ, 1-[[[1-[(diisopropylamino)carbonyl]-4-piperidinyl]amino]acetyl]-2-cyano-(S)-pyrrolidine], the concentration for half-maximal inhibition (IC50) in data set [1] was 94 nM; in data set [2], 45 nM; in data set [3], 5 nM.

With `CC(C)(CNC(=O)Nc1ccc(Cl)cc1)NCC(=O)N1CCC[C@H]1C#N` [Ex. 2K, 1-[[[2-[[[(4-chlorophenyl)amino]carbonyl]amino]-1,1-dimethylethyl]amino]acetyl]-2-cyano-(S)-pyrrolidine], the IC50 in data set [1] came out at 56 nM; in data set [2], 305 nM; in data set [3], 38 nM.

Take `N#C[C@@H]1CCCN1C(=O)CNC1CCN(c2nc(-c3ccc(Cl)cc3)cs2)CC1` [Ex. 2LL]: the concentration for half-maximal inhibition (IC50) in data set [1] is 61 nM; in data set [2], 649 nM; in data set [3] it was 123 nM.

Turning to `COc1ccc(-c2csc(N3CCC(NCC(=O)N4CCC[C@H]4C#N)CC3)n2)cc1` [Ex. 2MM], the concentration for half-maximal inhibition (IC50) in data set [1] is 22 nM; in data set [2] it was 71 nM; in data set [3], 58 nM.

`N#C[C@@H]1CCCN1C(=O)CNC1CCC(NC(=O)c2ccccc2)CC1` (stereo partly drawn) [Ex. 2N, 1-[[[4-(benzoylamino)cyclohexyl]amino]acetyl]-2-cyano-(S)-pyrrolidine] returned a melting point of 78 to 80 °C.

Consider `N#C[C@@H]1CCCN1C(=O)CN[C@H]1CC[C@H](Nc2nccc(C(F)(F)F)n2)CC1` [Ex. 2O, 1-[[[4-[[(4-trifluoromethyl)-2-pyrimidinyl]amino]cyclohexyl]amino]acetyl]-2-cyano-(S)-pyrrolidine], for which the IC50 in data set [1] was 8 nM; in data set [2], 8 nM; in data set [3], 9 nM.

As to `N#C[C@@H]1CCCN1C(=O)CN[C@H]1CC[C@H](Nc2ncccc2C(F)(F)F)CC1` [Ex. 2P, 1-[[4-[[(3-trifluoromethyl-2-pyridinyl)amino]cyclohexyl]amino]acetyl]-2-cyano-(S)-pyrrolidine], the figures for the IC50 in data set [1], in data set [2] and in data set [3] were 15 nM, 16 nM and 11 nM, respectively.

Take `N#C[C@@H]1CCCN1C(=O)CN[C@H]1CC[C@H](NS(=O)(=O)c2ccc(Cl)cc2)CC1` [Ex. 2Q, 1-[[[[4-[(4-chlorophenyl)sulfonyl]amino]cyclohexyl]amino]acetyl]-2-cyano-(S)-pyrrolidine]: the IC50 in data set [1] was 30 nM; in data set [2] it was 38 nM; in data set [3], 38 nM.

For `N#C[C@@H]1CCCN1C(=O)CN[C@H]1CC[C@H](NC(=O)c2ccc(Cl)cc2)CC1` [Ex. 2T, 1-[[[4-[(4-chlorobenzoyl)amino]cyclohexyl]amino]acetyl]-2-cyano-, (S)-pyrrolidine], the IC50 in data set [1] was 31 nM; in data set [2], 26 nM; in data set [3], 37 nM.

As for `N#C[C@@H]1CCCN1C(=O)CN[C@H]1CC[C@H](NS(=O)(=O)c2ccc(C(F)(F)F)cc2)CC1` [Ex. 2Z, 1-[[[4-[[[(4-trifluoromethyl)phenyl]sulfonyl]amino]cyclohexyl]amino]acetyl]-2-cyano-(S)-pyrrolidine], the IC50 in data set [1] worked out at 66 nM; in data set [2] it was 122 nM; in data set [3], 88 nM.

Turning to `N#C[C@@H]1CCCN1C(=O)CNC1CCN(C(=O)c2ccc(Cl)cc2)CC1` [Ex. 4B], the IC50 in data set [1] was determined as 35 nM; in data set [2] it was 77 nM; in data set [3] it was 31 nM.

Regarding `N#C[C@@H]1CCCN1C(=O)CNC1CCN(S(=O)(=O)c2ccc(C(F)(F)F)cc2)CC1` [Ex. 4C], the IC50 was determined as 83 nM in data set [1], 68 nM in data set [2] and 48 nM in data set [3].

In the case of `N#C[C@@H]1CCCN1C(=O)CNC1CCN(S(=O)(=O)c2ccccc2)CC1` [Ex. 4D, 1-[[(1-phenylsulfonyl-4-piperidinyl)amino]acetyl]-2-cyano-(S)-pyrrolidine], the IC50 in data set [1] was found to be 114 nM; in data set [2], 104 nM; in data set [3], 59 nM.

Regarding `N#C[C@@H]1CCCN1C(=O)CN[C@H]1CC[C@H](NC(=O)c2ccc(F)cc2)CC1` [Ex. 5], the IC50 in data set [1] was found to be 36 nM; in data set [2], 5 nM; in data set [3] it was 4 nM.
